Measurements: publication PMC10349806 (Nature Communications, 2023)
Values joined by “and” are separate entries in the source; they are usually repeats but may differ in a detail not shown here. Equal entries are not always repeated.

Assays:
[1] = target: T1, PfCRT variant E208A (Plasmodium falciparum, UniProt Q9N623, A220S/E208A/I356T/K76T/M74I/N326S/N75E/Q271E/R371I); experiment: CQ uptake assay, oocytes expressing E208A; assay type: cell-based
T1 sequence (Q9N623 1-424 M74I/N75E/K76T/E208A/A220S/Q271E/N326S/I356T/R371I): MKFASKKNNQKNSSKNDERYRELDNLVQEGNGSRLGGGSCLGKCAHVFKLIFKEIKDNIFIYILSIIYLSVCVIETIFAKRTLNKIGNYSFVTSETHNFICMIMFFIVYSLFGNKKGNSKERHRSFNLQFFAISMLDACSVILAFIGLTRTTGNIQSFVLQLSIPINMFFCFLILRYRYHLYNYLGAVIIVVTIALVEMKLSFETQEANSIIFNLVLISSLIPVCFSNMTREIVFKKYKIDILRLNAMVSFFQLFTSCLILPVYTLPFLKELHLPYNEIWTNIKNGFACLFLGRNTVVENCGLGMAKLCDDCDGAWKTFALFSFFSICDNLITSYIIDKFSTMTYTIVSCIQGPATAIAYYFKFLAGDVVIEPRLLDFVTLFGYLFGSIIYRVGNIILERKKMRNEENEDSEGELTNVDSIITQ
Experimental: (§1) Site-directed mutagenesis of PfCRT^Dd2 was performed as described using the megaprimer method with overlap extension[21],[54]. The primer pairs used are listed in Supplementary Table 6. Please note that a codon-optimized and oocyte-adapted version of PfCRT^Dd2 was used[22] (Supplementary Fig. 16). The resulting DNA fragment was cloned into the SP64T expression vector and verified by sequencing.
(§2) Oocytes were obtained as described previously. Briefly, adult (>2 years old) female X. laevis frogs (NASCO) were anesthetized in a cooled solution of ethyl 3-amino benzoate methanesulfonate (0.1%, w/v), followed by a surgical removal of parts of the ovary. The ovary lobes were carefully dissected and small pieces of oocytes were incubated in Ca^2+-free ND96 buffer (96 mM NaCl, 2 mM KCl, 1 mM MgCl2 buffered with 5 mM HEPES/NaOH, pH 7.5) supplemented with collagenase D (0.1%, w/v; Roche), BSA (0.5%, w/v), and 9 mm Na2HPO4 at 18 °C for 14-16 h while gentle shaking. After incubation, the oocytes were carefully washed several times with ND96 buffer (96 mM NaCl, 2 mM KCl, 1.8 mM CaCl2, 1 mM MgCl2 buffered with 5 mM HEPES/NaOH, pH 7.5) supplemented with 100 mg l^−1 gentamycin). Defolliculated and healthy-looking stage V-VI oocytes were manually selected for RNA microinjection. The RNA was generated as following: The codon-optimized sequences of PfCRT variants were cloned into the pSP64T expression vector. After vector linearization using the restriction endonucleases BamHI or SalI (New England Biolabs), transcription was performed using the in vitro SP6 mMessage mMachine Kit (Ambion)[34]. The obtained RNA was kept at −80 °C and diluted with nuclease-free water to a concentration of 0.6 μg μl^−1. Precision-bore glass capillary tubes (3.5-inch glass capillaries; Drummond Scientific Co.) were pulled on a vertical puller (P-87 Flaming/Brown micropipette puller, Sutter Instrument Co.), graduated, and placed on a microinjector (Nanoject II Auto-Nanoliter Injector, Drummond Scientific Co.). 50 nl of nuclease-free water alone (control oocytes) or 50 nl of 0.6 μg μl^−1 RNA were injected under stereomicroscopic control. Injected oocytes were incubated for 46–72 h at 18 °C with twice-daily buffer changes before usage in experiments.
Drug uptake assays were performed as described previously[21],[22],[24],[34]. […] The direction of radio-labeled drug transport is here from the mostly acidic extracellular solution (pH 4.5 or 6.0, as indicated) into the oocyte cytosol (pH ∼ 7.2), which corresponds to the efflux of drug from the acidic digestive vacuole (pH 5.2) into the parasite cytoplasm (pH 7.2). The topology of PfCRT in the oolemma is such that both the N- and C-terminus face the extracellular milieu[3],[22]. In the parasite, the N- and C-terminus face the lumen of the digestive vacuole. […] For determination of the amount of drug uptake for each oocyte, the reaction medium was removed and the oocytes were washed three times with 2 ml of ice-cold ND96 buffer. Each oocyte was individually transferred to a scintillation vial containing 5% sodium dodecyl sulfate (200 μl) for lysis. […] Oocytes that were injected with water instead of RNA were analyzed in parallel, representing the uptake of a drug by diffusion and/or endogenous permeation pathways. […] The specific PfCRT-mediated uptake was determined by subtracting the corresponding background value measured in water-injected oocytes from that of PfCRT-expressing oocytes. […]

[2] = test system: PfCRT variant D313A; experiment: CQ uptake assay, oocytes expressing D313A; assay type: cell-based, Plasmodium falciparum
Experimental: as §1, §2
Drug uptake assays were performed as described previously[21],[22],[24],[34]. […] The direction of radio-labeled drug transport is here from the mostly acidic extracellular solution (pH 4.5 or 6.0, as indicated) into the oocyte cytosol (pH ∼ 7.2), which corresponds to the efflux of drug from the acidic digestive vacuole (pH 5.2) into the parasite cytoplasm (pH 7.2). The topology of PfCRT in the oolemma is such that both the N- and C-terminus face the extracellular milieu[3],[22]. In the parasite, the N- and C-terminus face the lumen of the digestive vacuole. CQ uptake kinetics were performed by incubating oocytes in ND96 buffer adjusted to a pH of 4.5, 5.0, 5.5, or 6.0 and supplemented with 50 nM [^3H]CQ and one of 7 different CQ concentrations (10 µM, 50 µM, 100 µM, 200 µM, 300 µM, 400 µM, 500 µM CQ). The reaction was stopped at the 60 min time point, which is in the linear uptake range[22],[34] (Supplementary Fig. 17). For determination of the amount of drug uptake for each oocyte, the reaction medium was removed and the oocytes were washed three times with 2 ml of ice-cold ND96 buffer. Each oocyte was individually transferred to a scintillation vial containing 5% sodium dodecyl sulfate (200 μl) for lysis. The radioactivity of each sample was measured using a liquid scintillation analyzer Tri-Carb 4910 TR (PerkinElmer). Oocytes that were injected with water instead of RNA were analyzed in parallel, representing the uptake of a drug by diffusion and/or endogenous permeation pathways. The resulting value represents the “background“ level of drug accumulation in oocytes (in-depth discussion in[22]). […]

[3] = pH 4.5, single replicates, Fig 1d left
[4] = pH 6.0, single replicates, Fig 1d left
[5] = D313A, 50 µM CQ, 1 h, mean ± SEM

CCN(CC)CCCC(C)Nc1ccnc2cc(Cl)ccc12 (centres unmarked) [CQ, chloroquine]
Activity at pH 6.0 ([1]; E208A, 50 µM CQ, 1 h, mean ± SEM): 5.43 ± 0.38 pmol h-1 oocyte-1
R-value ([1]; E208A, CQ transport at pH 4.5 / pH 6.0): 0.48 and 0.48 ± 0.05
E208A transport activity pH 4.5 [1, 3]: 3.17 pmol oocyte-1 h-1 and 3.09 pmol oocyte-1 h-1 and 1.68 pmol oocyte-1 h-1
E208A R-value ([1]; pH 4.5 vs pH 6.0, Fig 1d left): 0.52 and 0.55 and 0.37
E208A transport activity pH 6.0 [1, 4]: 6.15 pmol oocyte-1 h-1 and 5.57 pmol oocyte-1 h-1 and 4.57 pmol oocyte-1 h-1
Activity at pH 4.5 [2, 5]: 1.49 ± 0.21 pmol h-1 oocyte-1
Activity at pH 6.0 [2, 5]: 4.55 ± 0.45 pmol h-1 oocyte-1
R-value ([2]; D313A, CQ transport at pH 4.5 / pH 6.0): 0.33 ± 0.04
D313A transport activity pH 4.5 [2, 3]: 2.00 pmol oocyte-1 h-1 and 1.13 pmol oocyte-1 h-1 and 1.34 pmol oocyte-1 h-1
D313A R-value ([2]; pH 4.5 vs pH 6.0, Fig 1d left): 0.38 and 0.23 and 0.39
D313A transport activity pH 6.0 [2, 4]: 5.27 pmol oocyte-1 h-1 and 4.91 pmol oocyte-1 h-1 and 3.47 pmol oocyte-1 h-1
